Reference: patent US20050282743A1, “Molecular interactions in cells” (Arbor Vita Corporation, priority 2001, published 2005)
Where two headings read alike, the source gives them in different places. Ends that are not written are not given here. Peptide text beside a SMILES is read from it. * marks the point of attachment. Biotin = O=C1N[C@H]2[C@H](CS[C@H]2CCCCC(=O)*)N1

Assays:
[1] = target: T1, PDZ-domain polypeptide (GST/PDZ fusion protein) (Homo sapiens, UniProt Q5TCQ9); assay: Apparent affinity (Kd) by titration of PL peptide in the G assay; format: binding
T1 construct: made in house; host or cells: E. coli (DH5alpha, BL21 or JM109)
T1 sequence (Q5TCQ9 1-1481): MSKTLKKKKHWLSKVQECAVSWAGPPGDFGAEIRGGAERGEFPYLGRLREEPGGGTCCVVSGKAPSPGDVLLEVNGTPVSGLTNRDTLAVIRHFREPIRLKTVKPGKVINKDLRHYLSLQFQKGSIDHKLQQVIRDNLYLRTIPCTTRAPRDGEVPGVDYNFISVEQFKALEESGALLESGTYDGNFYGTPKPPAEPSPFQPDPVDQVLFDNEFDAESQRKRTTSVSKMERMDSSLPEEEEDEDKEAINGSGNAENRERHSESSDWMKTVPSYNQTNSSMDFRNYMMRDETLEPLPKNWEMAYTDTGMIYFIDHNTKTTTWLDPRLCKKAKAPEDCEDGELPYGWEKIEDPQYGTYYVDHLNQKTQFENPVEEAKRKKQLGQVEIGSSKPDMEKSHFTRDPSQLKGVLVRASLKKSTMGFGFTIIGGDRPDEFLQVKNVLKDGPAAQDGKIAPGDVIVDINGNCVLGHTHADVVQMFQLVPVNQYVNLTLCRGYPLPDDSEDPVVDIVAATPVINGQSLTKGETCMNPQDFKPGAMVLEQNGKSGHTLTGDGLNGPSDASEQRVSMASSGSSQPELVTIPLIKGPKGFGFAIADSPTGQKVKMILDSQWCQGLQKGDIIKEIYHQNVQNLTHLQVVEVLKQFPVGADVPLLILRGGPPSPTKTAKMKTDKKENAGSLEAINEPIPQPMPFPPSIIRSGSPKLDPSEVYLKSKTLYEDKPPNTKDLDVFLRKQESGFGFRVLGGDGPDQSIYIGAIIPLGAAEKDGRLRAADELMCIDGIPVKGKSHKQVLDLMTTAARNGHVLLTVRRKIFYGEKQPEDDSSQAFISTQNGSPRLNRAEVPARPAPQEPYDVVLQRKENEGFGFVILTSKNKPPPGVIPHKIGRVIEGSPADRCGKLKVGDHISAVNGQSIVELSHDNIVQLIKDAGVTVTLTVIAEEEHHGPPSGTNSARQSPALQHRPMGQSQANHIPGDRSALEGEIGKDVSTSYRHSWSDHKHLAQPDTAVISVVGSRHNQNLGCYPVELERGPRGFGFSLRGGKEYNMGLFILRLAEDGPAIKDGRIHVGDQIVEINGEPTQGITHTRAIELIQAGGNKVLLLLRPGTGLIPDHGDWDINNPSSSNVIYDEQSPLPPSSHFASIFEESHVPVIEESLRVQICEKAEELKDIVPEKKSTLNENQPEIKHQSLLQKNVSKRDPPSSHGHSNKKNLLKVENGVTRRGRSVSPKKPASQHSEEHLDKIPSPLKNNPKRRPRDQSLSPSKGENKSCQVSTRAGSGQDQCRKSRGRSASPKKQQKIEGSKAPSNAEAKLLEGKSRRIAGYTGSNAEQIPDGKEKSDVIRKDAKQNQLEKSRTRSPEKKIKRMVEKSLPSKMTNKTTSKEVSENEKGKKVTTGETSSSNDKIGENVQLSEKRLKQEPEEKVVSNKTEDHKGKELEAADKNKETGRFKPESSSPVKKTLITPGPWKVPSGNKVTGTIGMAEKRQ
In short: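 A fixed concentration of GST/PDZ fusion protein, 5 ug/ml by default, was mixed in solution with increasing labeled PL peptide (e.g. 0.1 uM-1 mM). Reaction times ranged from 10 minutes to 2 days at 4-37° C. Complexes were separated from free peptide and detected via the label as in the G assay, apparent affinity coming from the saturating concentration.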

[2] = target: T2, KIAA0807(S) (PDZ Domain 1) (Homo sapiens, UniProt Q6P0Q8); assay: G' assay and Kd titration, TABLE 12; format: binding; conditions: for Classification: A450 nm class of biotinylated PL peptide bound, 0 in conc columns = peptide 10 uM, protein 5 ug/ml
T2 construct: made in house; host or cells: E. coli (DH5alpha, BL21 or JM109)
T2 sequence (Q6P0Q8 with tags, fused parts or gaps): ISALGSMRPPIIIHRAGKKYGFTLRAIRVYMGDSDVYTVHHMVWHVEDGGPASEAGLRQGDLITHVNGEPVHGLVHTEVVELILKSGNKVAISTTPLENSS
Procedure: The third column labeled “Peptide Optimal Concentration” in the tables is a number reflective of the binding interaction between the PL protein and PDZ protein. […] The column labeled “Protein Optimal Concentration” refers to the protein concentration used to assay PL interaction (in ug/ml); a ‘0’ is indicative of 5 ug/ml protein concentration; any other value represents the concentration (in ug/ml) used to determine the dissociation constant for a given interaction.
Finally, the seventh column labeled “Classification” is another measure of the level of binding. In particular, it provides an absorbance value at 450 nm which indicates the amount of PL peptide bound to the PDZ protein. The following numerical values have the following meanings: ‘1’—A450 nm 0-1; ‘2’—A450 nm 1-2; ‘3’—A450 nm 2-3; ‘4’—A450 nm 3-4; ‘5’—A450 nm of 4 more than 2× repeated; ‘0’—A450 nm 0, i.e., not found to interact. Thus, higher numbers indicate stronger interactions.
For convenience, the assay conditions described in this section are referred to as the “G′ assay” and the “G″ assay,” with the specific conditions described in the preceding section on G assays being referred to as the “G^0 assay.” The “G′ assay” is identical to the “G^0 assay” except at step (2) the peptide concentration is 10 uM instead of 20 uM.

| Classification [2] | Molecule | other results |
| --- | --- | --- |
|  | CC[C@H](C)[C@H](NC(=O)[C@H](CC(=O)O)NC(=O)[C@H](CCC(=O)O)NC(=O)[C@H](CCCNC(=N)N)NC(=O)[C@@H](NC(=O)CCCC[C@@H]1SC[C@@H]2NC(=O)N[C@@H]21)[C@@H](C)O)C(=O)N[C@@H](Cc1ccc(O)cc1)C(=O)N[C@H](C(=O)N[C@@H](CC(N)=O)C(=O)N[C@@H](Cc1ccc(O)cc1)C(=O)N1CCC[C@H]1C(=O)N[C@H](C(=O)N[C@@H](Cc1ccccc1)C(=O)N[C@@H](CO)C(=O)N[C@@H](CCCNC(=N)N)C(=O)N[C@@H](CCCNC(=N)N)C(=O)N1CCC[C@H]1C(=O)N[C@@H](CCCCN)C(=O)N[C@H](C(=O)N[C@@H](CCCNC(=N)N)C(=O)N[C@H](C(=O)O)C(C)C)[C@@H](C)O)[C@@H](C)O)C(C)C [DNAM-1] (Biotin-TREDIYVNYPTFSRRPKTRV-OH; C-terminus assumed) | Kd ([1]; Peptide Optimal Conc (Kd by titration of the PL peptide), PDZ KIAA1634, PDZ Domain 1): 1000 nM |
|  | CC[C@H](C)[C@H](NC(=O)[C@H](CO)NC(=O)[C@@H](NC(=O)[C@H](Cc1ccccc1)NC(=O)[C@H](CO)NC(=O)CCCC[C@@H]1SC[C@@H]2NC(=O)N[C@@H]21)[C@@H](C)O)C(=O)N[C@@H](CC(C)C)C(=O)N[C@H](C(=O)N[C@@H](CS)C(=O)N[C@@H](Cc1c[nH]cn1)C(=O)N[C@@H](CCC(N)=O)C(=O)N[C@@H](CCCNC(=N)N)C(=O)N[C@@H](CCCNC(=N)N)C(=O)N[C@H](C(=O)N[C@@H](CCC(N)=O)C(=O)N[C@@H](CCCNC(=N)N)C(=O)N[C@@H](CCCCN)C(=O)N[C@@H](CCC(=O)O)C(=O)N[C@H](C(=O)N[C@H](C(=O)N[C@@H](C)C(=O)O)C(C)C)[C@@H](C)O)[C@@H](C)O)[C@@H](C)O [GluR5-2 (rat)] | Kd ([1]; PDZ KIAA1634, PDZ Domain 1, titration of the PL peptide, read-out: Peptide Optimal Conc (Kd, dissociation constant)): 150 nM |
| 3 (A450 nm 2-3) | CC(C)C[C@H](NC(=O)CNC(=O)[C@@H](NC(=O)[C@H](CO)NC(=O)[C@H](CC(N)=O)NC(=O)[C@H](Cc1ccccc1)NC(=O)CNC(=O)[C@H](C)NC(=O)[C@H](C)NC(=O)[C@H](Cc1ccccc1)NC(=O)[C@@H](NC(=O)CCCC[C@@H]1SC[C@@H]2NC(=O)N[C@@H]21)[C@@H](C)O)[C@@H](C)O)C(=O)N1CCC[C@H]1C(=O)N[C@@H](Cc1c[nH]cn1)C(=O)N[C@@H](CO)C(=O)N[C@H](C(=O)N[C@H](C(=O)N[C@@H](CCCNC(=N)N)C(=O)N[C@H](C(=O)O)C(C)C)[C@@H](C)O)[C@@H](C)O [Neuroligin] (Biotin-TFAAGFNSTGLPHSTTRV-OH; C-terminus assumed) | Kd ([1]; PDZ KIAA1634, PDZ Domain 1, read-out: Peptide Optimal Conc (Kd by titration of the PL peptide)): 100 nM |
| 5 (A450 nm of 4 more than 2× repeated) | CC[C@H](C)[C@H](NC(=O)[C@H](CO)NC(=O)[C@H](CCC(=O)O)NC(=O)[C@H](Cc1ccc(O)cc1)NC(=O)[C@H](CC(=O)O)NC(=O)[C@H](CC(N)=O)NC(=O)[C@H](CCC(=O)O)NC(=O)[C@H](CCCCN)NC(=O)CCCC[C@@H]1SC[C@@H]2NC(=O)N[C@@H]21)C(=O)N[C@@H](CO)C(=O)N[C@@H](CC(=O)O)C(=O)N[C@@H](CC(C)C)C(=O)N[C@@H](CCC(N)=O)C(=O)N[C@@H](CCC(N)=O)C(=O)NCC(=O)N[C@@H](CCCNC(=N)N)C(=O)N[C@@H](CC(=O)O)C(=O)N[C@H](C(=O)N[C@H](C(=O)N[C@@H](CCCNC(=N)N)C(=O)N[C@@H](CC(C)C)C(=O)O)[C@@H](C)O)[C@@H](C)CC [PAG] (Biotin-KENDYESISDLQQGRDITRL-OH; C-terminus assumed) | Kd ([2]; titration of PL peptide, KIAA0807(S) protein 0.5 ug/ml, read-out: Peptide Optimal Conc (Kd)): 350 nM |
|  | CC(C)C[C@H](NC(=O)[C@H](CC(=O)O)NC(=O)[C@H](CO)NC(=O)[C@H](CCC(=O)O)NC(=O)CNC(=O)[C@H](Cc1ccc(O)cc1)NC(=O)[C@H](CC(C)C)NC(=O)[C@H](C)NC(=O)[C@H](CO)NC(=O)[C@H](CO)NC(=O)[C@H](Cc1ccccc1)NC(=O)[C@H](C)NC(=O)[C@H](C)NC(=O)[C@H](Cc1ccc(O)cc1)NC(=O)[C@H](CC(=O)O)NC(=O)[C@H](CC(C)C)NC(=O)[C@H](C)NC(=O)CNC(=O)[C@@H]1CCCN1C(=O)[C@@H](NC(=O)CCCC[C@@H]1SC[C@@H]2NC(=O)N[C@@H]21)C(C)C)C(=O)O [a-actinin 2] (Biotin-VPGALDYAAFSSALYGESDL-OH; C-terminus assumed) | Kd ([1]; PDZ KIAA1634, PDZ Domain 5, read-out: Peptide Optimal Conc (non-zero value: Kd by titration of the PL peptide)): 2000 nM |
| 1 (A450 nm 0-1) | ARHRVTSYTSSSVNVSSNL (Biotin-ARHRVTSYTSSSVNVSSNL) [IL-8RB] |  |
| 4 (A450 nm 3-4) | LASKSAEEGKQIPDSLSTDL (Biotin-LASKSAEEGKQIPDSLSTDL) [Dock2] |  |
| 3 (A450 nm 2-3) | QATSRNGHSARQHVVADTEL (Biotin-QATSRNGHSARQHVVADTEL) [CD34] |  |

| Molecule | Classification [2] | other results |
| --- | --- | --- |
| CC(C)C[C@H](NC(=O)[C@H](C)NC(=O)[C@@H](NC(=O)[C@@H](NC(=O)[C@H](Cc1c[nH]cn1)NC(=O)[C@H](CC(C)C)NC(=O)CNC(=O)[C@H](CCC(N)=O)NC(=O)CNC(=O)CNC(=O)[C@H](C)NC(=O)[C@H](C)NC(=O)[C@H](CCCNC(=N)N)NC(=O)[C@H](C)NC(=O)[C@H](CO)NC(=O)[C@H](CC(=O)O)NC(=O)[C@H](CC(=O)O)NC(=O)[C@H](Cc1c[nH]c2ccccc12)NC(=O)[C@H](C)NC(=O)CCCC[C@@H]1SC[C@@H]2NC(=O)N[C@@H]21)C(C)C)[C@@H](C)O)C(=O)O [LPAP] (Biotin-AWDDSARAAGGQGLHVTAL-OH; C-terminus assumed) | 5 (A450 nm of 4 more than 2× repeated) |  |
| CC[C@H](C)[C@H](NC(=O)[C@H](CCC(N)=O)NC(=O)CCCC[C@@H]1SC[C@@H]2NC(=O)N[C@@H]21)C(=O)N[C@@H](CO)C(=O)N1CCC[C@H]1C(=O)NCC(=O)NCC(=O)N[C@@H](CC(C)C)C(=O)N[C@@H](CCC(=O)O)C(=O)N1CCC[C@H]1C(=O)N1CCC[C@H]1C(=O)N[C@@H](CO)C(=O)N[C@@H](CCC(=O)O)C(=O)N[C@@H](CCCCN)C(=O)N[C@@H](Cc1c[nH]cn1)C(=O)N[C@@H](Cc1ccccc1)C(=O)N[C@@H](CCCNC(=N)N)C(=O)N[C@@H](CCC(=O)O)C(=O)N[C@H](C(=O)N[C@@H](CCC(=O)O)C(=O)N[C@H](C(=O)O)C(C)C)[C@@H](C)O [Tax] | 5 (A450 nm of 4 more than 2× repeated) |  |
